Test results as given in patent US20170181999A1, “USE OF COMPOUNDS PRODUCED FROM ARRABIDAEA BRACHYPODA EXTRACTS AS ANTI-ULCEROGENIC AGENTS” (UNIVERSIDADE ESTADUAL PAULISTA "JULIO DE MESQUITA FILHO" - …, priority 2013, published 2017).
Marks after values point to notes of the source that are not given here.

Key:
GSH = assay: Glutathione (GSH) levels on the gastric mucous, ulcer induced by ethanol; type: in vivo; conditions: oral administration, gastric mucous of rats
Experimental: To proceed with the measurement of the total glutathione content, the method disclosed by Anderson in 1985 was used, which bases on the total oxidation of the reduced glutathione (GSH) present in a sample to its oxidized form (GSSG), through the incubation of the sample with dithiobis nitrobenzoic acid (DTNB). The reduced DTNB acquires a yellow coloration, which can be spectrophotometrically determined. The GSSG generated is reduced by the action of the enzyme glutathione reductase in the presence of NADPH. The GSH formed oxidizes again, generating a continuous cycle, in which the reduction speed of the DTNB (and its resulting increase in the absorbance at 412 nm) is proportional to the total amount of glutathione (GSH+GSSG). To proceed with the measurement of the total glutathione content, the cytosolic extracts obtained from the stomachs of the animals of the ulcer induced by ethanol trials were used. […] The plate was placed on the spectrophotometer reader, where it was maintained for 5 minutes in a temperature of 30° C. After this period, 15 μL of glutathione reductase was added and the increase on the absorbance was registered at 412 nm. […]

[1] = Sub-chronic toxicity evaluation (organ and body weight), acetic acid ulcer model; type: in vivo, rats; conditions: oral
Experimental: (§1) After 48 hours of the surgical procedure, the oral administration of the treatments was initiated (once daily for 7 and 14 days) with EAB (300 mg/kg), lansoprazole (30 mg/kg—positive control) and vehicle (saline solution 0.9%—negative control).
(§2) The animals were weighted and observed from the induction of the injury to the end of treatments. At the end of this period, the animals were sacrificed; their stomachs were removed and opened toward the great curvature to the measurement of the ulcerative injury area.
(§3) Tissue sections were also collected for preparing histological blades. The animals also had heart, lungs, liver, kidneys and testicles collected and weighted in order to verify possible signs of toxicity.

[2] = system: ulcer induced by acetic acid; assay: Histological analysis of stomachs, ulcer induced by acetic acid; type: in vivo, rats; conditions: treated for 14 days, compared to the saline group
Experimental: as §3
The histological cuts and blades were prepared by fixing the material in Alfac (formalin, alcohol 80% and acetic acid) for 24 hours. The pieces were, then, dehydrated and included in an appropriate medium solid.
Subsequently, the middle blocks were cut ([…] thick) on a microtome, serially. The samples were submitted to hematoxylin-eosin (HE) coloration for general observation of the structure and cellularity in light microscopy.

[3] = system: glutathione peroxidase (GPx); assay: Glutathione peroxidase (GPx) activity on the gastric mucous, ulcer induced by ethanol; type: in vivo; conditions: oral administration, gastric mucous of rats
Experimental: Rats Unib-WH were submitted to fasting for 24 hours with water ad libitum. On the day of the trial, they were divided into 7 groups: saline as negative control, lansoprazole as positive control and four groups with the A. brachypoda roots extracts at different concentrations (dosages of 10, 30, 100 and 300 mg·Kg-1) dissolved in saline at 10 mL·Kg-1 concentrations.

myeloperoxidase (MPO) [4] = assay: MPO activity of the gastric mucous, ulcer induced by acetic acid; type: in vivo, rats; conditions: oral, extract 300 mg/kg, lansoprazole 30 mg/kg
Experimental: The myeloperoxidase activity was determined through the method disclosed by Krawisz et al. in 1984. The samples were homogenized in hexadecyl trimethyl ammonium bromide (HTAB) buffer at 0.5% (w/v) in saline phosphate buffer (50 mM, pH 6.0) with final dilution of 1:20 (w/v) until the obtainment of an uniform aspect.
The homogenate was submitted to the ultrasonic bath for 10 seconds, followed by a triple process for freezing and defrosting, which facilitates the rupture of the cell structures and, as a consequence, the release of the enzyme.
The sample was centrifuged at 7000 G, during 10 minutes and the MPO activity was determined following the kinetics of the reaction faced to hydrogen peroxide.
In an ELISA plate, 50 μL of the supernatant and 150 μL of the color reactive and hydrogen peroxide (0.066%) were placed in phosphate buffer (50 mM, pH 6.0).
(§4) The absorbance was determined at 450 nm and the enzyme activity was calculated by the interpolation of the standard curve, performed with MPO originated from human neutrophils.
(§5) One unity of MPO is defined as the necessary amount to degrade 1 mmol/minute of hydrogen peroxide at 25° C. The results were expressed as U/g of protein.

[5] = system: glutathione reductase (GR); assay: Glutathione reductase (GR) activity on the gastric mucous, ulcer induced by ethanol; type: in vivo; conditions: oral administration, gastric mucous of rats
Experimental: For measuring the GR activity, the enzymatic reaction was prepared with 100 μL of the sample (after centrifugation and dilution of the supernatant in phosphate buffer pH=7.4 in a 1:10 ratio) and 150 μL of the mixture formed by EDTA (0.20 mM), oxidized glutathione (1 mM) and NADPH (0.1 mM). The absorbance was read at 365 nm, between 0 and 10 minutes, according to the technique developed by Carlberg & Mannervik, 1985.
Rats Unib-WH were submitted to fasting for 24 hours with water ad libitum. On the day of the trial, they were divided into […] groups: saline as negative control, lansoprazole as positive control and four groups with the A. brachypoda roots extracts at different concentrations (dosages of 10, 30, 100 and 300 mg·Kg-1) dissolved in saline at 10 mL·Kg-1 concentrations.
The animals received the predicted treatment for each group and one hour later, 1 mL of absolute ethanol was orally administered.
After one hour of ulcer induction, the rats were sacrificed by cervical dislocation and their stomachs were withdrawn for quantification of injuries.
The injury areas were calculated, the stomachs were homogenized, the cytosolic extracts were prepared and the membranes for conducting the biochemical assays.

gastric acid secretion = assay: Pylorus ligature and evaluation of the gastric juice parameters; type: in vivo, rats; conditions: intra-duodenal administration; pylorus ligature, 4 hours
Experimental: The rats were in fasting for 48 hours with water ad libitum. On the day of the trial, the animals were divided into four groups: saline, lansoprazole, cimetidine and treated with A. brachypoda extract.
The rats were anesthetized and underwent a longitudinal incision just below the xiphoid apophysis for the pylorus ligature.
The drug administration was carried out immediately after the ligature, intraduodenally. The incisions were sutured, and after four hours of surgery, the rats were sacrificed. The stomachs were carefully withdrawn and acid secretion was collected. After centrifugation, the volume and pH of the secretion of each animal was measured.

[6] = system: ulcer induced by acetic acid; assay: Healing of the ulcer induced by acetic acid, injury area; type: in vivo, rats
Experimental: The rats were anaesthetized with xilazine chloridrate and ketamine for performing a longitudinal incision right under the xiphoid apophysis.
The previous wall of the stomach was exposed and an area of the serous tissue was delimited with a plastic ring upon which was added 50 μL of acetic acid absolute with the aid of an automatic micropipette, the contact between the acid and the serous tissue being maintained during 60 seconds.
Following, the area was cleaned with saline solution and the animals had their abdominal cavities closed, being maintained in rest until complete recovery of the anesthesia and, then, they were placed at the vivarium.
as §1, §2

myeloperoxidase (MPO) [7] = assay: MPO activity, ulcer induced by ethanol; type: in vivo; conditions: rats
Experimental: The myeloperoxidase activity was determined through the method disclosed by Krawisz et al. in 1984. The samples were homogenized in hexadecyl trimethyl ammonium bromide (HTAB) buffer at 0.5% (w/v) in saline phosphate buffer (50 mM, pH 6.0) with final dilution of 1:20 (w/v) until the obtainment of an uniform aspect. […]
The sample was centrifuged at 7000 G, during 10 minutes and the MPO activity was determined following the kinetics of the reaction faced to hydrogen peroxide. […]
as §4, §5

| SMILES | GSH (nmol/mg of protein) (GSH) | Evolution of the corporal weight (FIG. 5) ([1]; sub-chronic treatment, 14 days) | Relation between the weight of the organs and the animals: lungs (FIG. 3) ([1]; treated for 7 days) | Photomicrographs of stomachs (FIG. 11) [2] | GPx (nmol/min/mg of protein) [3] | MPO (U/mg of protein) (myeloperoxidase (MPO) [4]; 7 consecutive days) | MPO (U/mg of protein) (myeloperoxidase (MPO) [4]; 14 consecutive days) | GR (nmol/min/mg of protein) [5] | pH of the gastric acid secretion (gastric acid secretion) | Ulcerogenic injury area (FIG. 6) ([6]; 7 consecutive days, oral, extract 300 mg/kg, lansoprazole 30 mg/kg) | Evolution of the healing process, recovery of the gastric mucous (FIG. 8) ([6]; during 14 days of oral treatment) | MPO (U/mg of protein) (myeloperoxidase (MPO) [7]) | Volume of gastric acid secretion (mL) (gastric acid secretion) |
| --- | --- | --- | --- | --- | --- | --- | --- | --- | --- | --- | --- | --- | --- |
| Cc1c(OCC(F)(F)F)ccnc1C[S+]([O-])c1nc2ccccc2[nH]1 (centres unmarked) [Lansoprazole, lansoprazole] | 13.45 ± 2.25 nmol/mg of protein | no significative statistical difference | reduction of this relation in the lungs | speeded up the healing of the gastric mucous | 33.54 ± 2.12 nmol/min/mg of protein | 110.50 ± 33.43 U/mg of protein | 98.05 ± 15.99 U/mg of protein | 10.53 ± 0.42 nmol/min/mg of protein | 5.41 0.04*** | reduction of the injury area | acceleration | 0.6 0.04* U/mg of protein | – |
| CN/C(=N/CCSCc1nc[nH]c1C)NC#N [Cimetidine, cimetidine] | – | – | – | – | – | – | – | – | 5.39 0.11*** | – | – | – | 0.31 0.03** mL |
